In patent publication US20080103193A1, “Methods for making compositions and compositions for treating pain and cachexia” (priority 2006, published 2008):
“Also recorded” adds a separate entry of the source.

How the values were obtained:
[1] = Room temperature storage of marijuana biomass, Δ9-THC content; type: physicochemical; settings: 8-month period, room temperature storage at RTI
Method: Under DEA Schedule I license (No. RC0288058), two 250-gram shipments of high potency, bulk marijuana biomass were requested from the National Institute of Drug Abuse (NIDA). Both shipments were provided by the Research Triangle Institute (RTI) International, Research Triangle Park, N.C. under contract with NIDA. The first batch (RTI Batch No. 8976-1001-26/University of Mississippi Batch No. 1182/1186) was received and logged in at Aphios on Dec. 17, 2002. This batch was measured by the University of Mississippi's Thad Cochran National Center for the Natural Products Research to have a Δ9-THC content of 8.98%. Table 1 lists the concentration of other cannabinoids per the provided Certificate of Analysis (Dec. 2, 2002). Table 1 also lists HPLC measurements of heat-treated biomass made by Aphios' chemists; the methods and data are detailed below. The biomass was stored in a locked safe at room temperature when not in use. All usage was recorded on a log sheet that was also stored in the same safe.
The second shipment, also from the same batch of high potency marijuana from the U. of Mississippi, was received and logged in at Aphios on Aug. 14, 2003. The second shipment was measured by RTI on Jul. 29, 2003 to have a Δ9-THC content of 6.12% by GLC analysis. […]

[2] = cited from earlier work; for psychoactivity relative to THC: compared with Δ9-THC
[3] = cited from earlier work

CCCCCc1cc(O)c2c(c1)OC(C)(C)[C@@H]1CCC(C)=C[C@@H]21 [Δ9-THC, Δ9-tetrahydrocannabinol]
decrease of Δ9-THC content of the marijuana biomass [1]: about 32%

C=C(C)[C@@H]1CCC(C)=C[C@H]1c1c(O)cc(CCCCC)cc1O [CBD, cannabidiol]
psychoactivity ([2]; in vivo): not psychoactive; also recorded: not psychotomimetic in pure form

CCCCCc1cc(O)c2c(c1)OC(C)(C)[C@@H]1CCC(CO)=C[C@@H]21 [11-OH-A-9-THC]
psychoactivity relative to THC [2]: three times more psychoactive

CCCCCc1cc(O)c2c(c1)OC(C)(C)[C@@H]1CCC(C)=C[C@@H]21 [Dronabinol]
bioavailability (reaches systemic circulation) ([3]; oral Dronabinol): 6-20%
time to peak plasma concentrations after dosing ([3]; oral Dronabinol): 2 to 4 h
bioavailability ([3]; oral intake of synthetic Δ9-THC capsules): 6-20%

CCCCCc1cc(O)c2c(c1)OC(C)(C)[C@@H]1CC=C(C)C[C@@H]21 [Δ-8-THC, Δ8-tetrahydrocannabinol]
psychoactivity relative to THC [2]: slightly less active
